{"source": "patent US7056907B2", "about": "“Mandelic acid derivatives and their use as thrombin inhibitors” (AstraZeneca AB, priority 2001, dated 2006)", "key": {"[1]": {"tested_on": "pooled normal human citrated plasma", "assay": "Test D: Determination of Activated Partial Thromboplastin Time (APTT)", "type": "biochemical", "settings": "read-out: IC50 APTT (concentration of inhibitor in human plasma that doubles the Activated Partial Thromboplastin Time)", "method": "Determination of Activated Partial Thromboplastin Time (APTT)\nAPTT is determined in pooled normal human citrated plasma with the reagent PTT Automated 5 manufactured by Stago. The inhibitors are added to the plasma (10 μL inhibitor solution to 90 μL plasma) and incubated with the APTT reagent for 3 minutes followed by the addition of 100 μL of calcium chloride solution (0.025 M) and APTT is determined by use of the coagulation analyser KC10 (Amelung) according to the instructions of the reagent producer.\n(§1) The clotting time is expressed as absolute values (seconds) as well as the ratio of APTT without inhibitor (APTT0) to APTT with inhibitor (APTTi). The latter ratios (range 1–0) are plotted against the concentration of inhibitor (log transformed) and fitted to sigmoidal dose-response curves according to the equation y=a/[1+(x/IC50)^s] where: a=maximum range, i.e. 1; s=slope of the dose-response curve; and IC50=the concentration of inhibitor that doubles the clotting time. The calculations are processed on a PC using the software program GraFit Version 3, setting equation equal to: Start at 0, define end=1 (Erithacus Software, Robin Leatherbarrow, Imperial College of Science, London, UK). IC50APTT is defined as the concentration of inhibitor in human plasma that doubles the Activated Partial Thromboplastin Time. Test E Determination of Thrombin Time ex vivo"}, "[2]": {"assay": "Test E: Determination of Thrombin Time ex vivo (plasma concentration of thrombin inhibitor after oral or parenteral administration)", "type": "in vivo, rat", "settings": "conscious rats, plasma analysed by LC-MS/MS", "description": "as §1\nThe inhibition of thrombin after oral or parenteral administration of the compounds of the invention, dissolved in ethanol:SolutolK:water (5:5:90), is examined in conscious rats which, one or two days prior to the experiment, are equipped with a catheter for blood sampling from the carotid artery. […]\n50 μL of plasma samples are precipitated with 100 μL of cold acetonitrile. […] 10 μL volumes of the resulting solutions are analysed by LC-MS/MS and the concentrations of thrombin inhibitor are determined using standard curves."}, "[3]": {"assay": "Test G: Determination of in vitro Stability, rat liver microsomes", "type": "in vitro ADME, Sprague-Dawley rats", "settings": "liver microsomes from rats, 37° C., up to 60 min", "method": "(§2) Plasma clearance is estimated in male Sprague Dawley rats. The compound is dissolved in water and administered as a subcutaneous bolus injection at a dose of 4 μmol/kg. Blood samples are collected at frequent intervals up to 5 hours after drug administration. Blood samples are centrifuged and plasma is separated from the blood cells and transferred to vials containing citrate (10% final concentration). 50 μL of plasma samples are precipitated with 100 μL of cold acetonitrile. The samples are centrifuged for 10 minutes at 4000 rpm. 75 μL of the supernatant is diluted with 75 μL of 0.2% formic acid. 10 μL volumes of the resulting solutions are analysed by LC-MS/MS and the concentrations of thrombin inhibitor are determined using standard curves. The area under the plasma concentration-time profile is estimated using the log/linear trapezoidal rule and extrapolated to infinite time. Plasma clearance (CL) of the compound is then determined as CL=Dose/AUC The values are reported in mL/min/kg. Test G Determination of in vitro Stability\n(§3) Liver microsomes are prepared from Sprague-Dawley rats and human liver samples according to internal SOPs. […] The concentration of compound remaining (FINAL CONC) in the 60 min. sample is determined by means of LCMS using a sample collected at zero time as reference (START CONC). The % of degraded thrombin inhibitor is calculated as: […]"}, "[4]": {"assay": "Test G: Determination of in vitro Stability, human liver microsomes", "type": "in vitro ADME", "settings": "liver microsomes from humans, 37° C., up to 60 min", "method": "as §2, §3"}}}
{"smiles": "N=C(N)c1cc(F)c(CNC(=O)[C@@H]2CCN2C(=O)[C@H](O)c2cc(Cl)cc(OC(F)F)c2)c(F)c1", "note": "[Example 1, Ph(3-Cl)(5-OCHF2)—(R)CH(OH)C(O)—(S)Aze-Pab(2,6-diF)]", "values": [{"measurement": "IC50", "setting": "[1]", "result": "< 1000", "unit": "nM"}]}
{"smiles": "CO/N=C(\\N)c1cc(F)c(CNC(=O)[C@@H]2CCN2C(=O)[C@H](O)c2cc(Cl)cc(OC(F)F)c2)c(F)c1", "note": "[Example 2, Ph(3-Cl)(5-OCHF2)—(R)CH(OH)C(O)—(S)Aze-Pab(2,6-diF)(OMe)]", "values": [{"measurement": "oral and/or parenteral bioavailability as the corresponding active inhibitor (free amidine)", "setting": "[2]", "result": "exhibit oral and/or parenteral bioavailability in the rat as the corresponding active inhibitor (free amidine)"}, {"measurement": "conversion to the corresponding active inhibitor (free amidine) in liver microsomes", "setting": "[3]", "result": "converted to the corresponding active inhibitor (free amidine)"}, {"measurement": "conversion to the corresponding active inhibitor (free amidine) in liver microsomes", "setting": "[4]", "result": "converted to the corresponding active inhibitor (free amidine)"}]}
